In one data set the target is Purified CYP3A4 (Homo sapiens, UniProt P08684, S18F). Particulars: for Soret peak / Soret trough: human, 20 µM, pH 7.4.
For the next data set, the target named is CYP3A4 baculosomes (Homo sapiens, UniProt P08684). Kind of data set: Saturation kinetics of metabolism by CYP3A4. Type of data set: in vitro ADME.

In the case of `CN(C)c1ccc(NC(=O)c2cc(-c3ccccc3)nc3ccccc23)cc1` [Compound 2], on Purified CYP3A4, the Binding mode entry was “Type I”, the Soret peak was found to be 385 nm and the Soret trough worked out at 416 nm.

For `O=C(Nc1ccccc1)c1cc(-c2ccccc2)nc2ccccc12` [Compound 3], on Purified CYP3A4, the Binding mode entry is on record as “Type I”, the Soret peak is reported as 392 nm and the Soret trough was found to be 417 nm.

For the molecule `Cc1ccc(NC(=O)c2cc(-c3ccccc3)nc3ccccc23)cc1` [Compound 4], at Purified CYP3A4, the Binding mode entry is “Type I”, the Soret peak is recorded as 393 nm and the Soret trough came to 417 nm.

Consider `COc1ccc(NC(=O)c2cc(-c3ccncc3)nc3ccccc23)cc1` [Compound 5], for which, on Purified CYP3A4, the Binding mode entry is recorded as “Type II”, the Soret peak is recorded as 427 nm and the Soret trough turned out to be 391 nm.

Take `CN(C)c1ccc(NC(=O)c2cc(-c3ccncc3)nc3ccccc23)cc1` [Compound 6]: at Purified CYP3A4, the Binding mode result was “Type II ^b”, the Soret peak is 427 nm and the Soret trough worked out at 392 nm. At CYP3A4 baculosomes (compared with compound 2 of series 1), the “kcat smaller than type I binding compound 2” value was “more than 2 fold”. In addition, the “kcat larger than type I binding compound 10” value at CYP3A4 baculosomes (compared with compound 10 of series 3) is listed as 1.2 times.

For `O=C(Nc1ccccc1)c1cc(-c2ccncc2)nc2ccccc12` [Compound 7], at Purified CYP3A4, the Binding mode result is recorded as “Type II”, the Soret peak is given as 427 nm and the Soret trough is 394 nm. In addition, at CYP3A4 baculosomes (compared with compounds 3 and 11), the “kcat higher than type I binding compounds 3 and 11” value is recorded as “about 1.5 times”.

For `Cc1ccc(NC(=O)c2cc(-c3ccncc3)nc3ccccc23)cc1` [Compound 8], on Purified CYP3A4, the Binding mode entry is “Type II”, the Soret peak came to 428 nm and the Soret trough is reported as 392 nm. The “rate of benzylic hydroxylation compared to O-demethylation of compound 5” value at CYP3A4 baculosomes (type II binding compounds, relative to aromatic hydroxylation in ring A) is “about three fold faster”.

As for `COc1ccc(NC(=O)c2cc(-c3ccccn3)nc3ccccc23)cc1` [Compound 9], at Purified CYP3A4, the Binding mode result is on record as “Type I”, the Soret peak is on record as 388 nm and the Soret trough amounted to 417 nm.

In the case of `CN(C)c1ccc(NC(=O)c2cc(-c3ccccn3)nc3ccccc23)cc1` [Compound 10], at Purified CYP3A4, the Binding mode result is recorded as “Type I”, the Soret peak was 386 nm and the Soret trough amounted to 416 nm.

With `O=C(Nc1ccccc1)c1cc(-c2ccccn2)nc2ccccc12` [Compound 11], at Purified CYP3A4, the Binding mode result was “Type I”, the Soret peak is 389 nm and the Soret trough is on record as 418 nm.

Consider `Cc1ccc(NC(=O)c2cc(-c3ccccn3)nc3ccccc23)cc1` [Compound 12], for which, on Purified CYP3A4, the Binding mode entry is “Type I”, the Soret peak is listed as 391 nm and the Soret trough was determined as 416 nm.

On to `COc1ccc(NC(=O)c2cc(-c3cnccn3)nc3ccccc23)cc1` [Compound 13], for which, at Purified CYP3A4, the Binding mode result is “Type II”, the Soret peak is reported as 423 nm and the Soret trough turned out to be 396 nm.

As to `CN(C)c1ccc(NC(=O)c2cc(-c3cnccn3)nc3ccccc23)cc1` [Compound 14], at Purified CYP3A4, the Binding mode entry is “Type II”, the Soret peak is listed as 425 nm and the Soret trough is given as 393 nm.

For the molecule `O=C(Nc1ccccc1)c1cc(-c2cnccn2)nc2ccccc12` [Compound 15], at Purified CYP3A4, the Binding mode entry is recorded as “Type II”, the Soret peak turned out to be 427 nm and the Soret trough turned out to be 397 nm.

Consider `Cc1ccc(NC(=O)c2cc(-c3cnccn3)nc3ccccc23)cc1` [Compound 16], for which, on Purified CYP3A4, the Binding mode result is recorded as “Type II”, the Soret peak is 422 nm and the Soret trough is 391 nm.

For the molecule `COc1ccc(NC(=O)c2cc(-c3ccncn3)nc3ccccc23)cc1` [Compound 17], on Purified CYP3A4, the Binding mode result is “Type II”, the Soret peak stood at 425 nm and the Soret trough is 391 nm.

As for `CN(C)c1ccc(NC(=O)c2cc(-c3ccncn3)nc3ccccc23)cc1` [Compound 18], on Purified CYP3A4, the Binding mode entry is “Type II”, the Soret peak was 422 nm and the Soret trough came out at 392 nm.

As to `O=C(Nc1ccccc1)c1cc(-c2ccncn2)nc2ccccc12` [Compound 19], at Purified CYP3A4, the Binding mode entry was “Type II”, the Soret peak is reported as 424 nm and the Soret trough came to 390 nm.

Regarding `Cc1ccc(NC(=O)c2cc(-c3ccncn3)nc3ccccc23)cc1` [Compound 20], at Purified CYP3A4, the Binding mode entry is recorded as “Type II”, the Soret peak is 425 nm and the Soret trough was 390 nm.
